Reference: ChEMBL document CHEMBL1132520, “Antimalarial activity of 3-hydroxyalkyl-2-methylene-propionic acid derivatives” (1999)
Calls of active or inactive are those of the source. The calls are words filed in the database; no cut-off is given here.

Key:
Plasmodium falciparum [1] = assay: In vitro inhibition of Plasmodium falciparum at 2.5 uM/well dose at 72 hrs in total parasite growth assay; assay type: functional
Plasmodium falciparum [2] = assay: In vitro antimalarial activity for Plasmodium falciparum at 5 uM/well dose at 24 hrs in Schizont maturation assay; assay type: functional
Plasmodium falciparum [3] = assay: In vitro antimalarial activity for Plasmodium falciparum at 0.25 uM/well dose at 24 hrs in Schizont maturation assay; assay type: functional
Plasmodium falciparum [4] = assay: In vitro antimalarial activity for Plasmodium falciparum at 2.5 uM/well dose at 24 hrs in Schizont maturation assay; assay type: functional
Mus musculus [5] = assay: Antimalarial activity against Plasmodium berghei evaluated in terms of mean survival time for mice (Mus musculus) at a dose of 40 mg/kg; assay type: functional
Mus musculus [6] = assay: Antimalarial activity against Plasmodium berghei evaluated in terms of mean survival time for mice (Mus musculus) at a dose of 160 mg/kg; assay type: functional
Plasmodium falciparum [7] = assay: In vitro inhibition of Plasmodium falciparum at 0.25 uM/well dose at 72 hrs in total parasite growth assay; assay type: functional
Mus musculus [8] = assay: In vivo anti-malarial activity against Plasmodium berghei in mice (Mus musculus) at a dose of 16 mg/kg; Active; assay type: functional, organism-based; design: dose 16 mg/kg
Plasmodium falciparum [9] = assay: In vitro inhibition of Plasmodium falciparum at 20 uM/well dose at 72 hrs in total parasite growth assay; assay type: functional
Plasmodium falciparum [10] = assay: In vitro antimalarial activity for Plasmodium falciparum at 100 uM/well dose at 24 hrs in Schizont maturation assay; assay type: functional
Plasmodium falciparum [11] = assay: In vitro inhibition of Plasmodium falciparum at 0.5 uM/well dose at 72 hrs in total parasite growth assay; assay type: functional
Plasmodium falciparum [12] = assay: In vitro inhibition of Plasmodium falciparum at 1.0 uM/well dose at 72 hrs in total parasite growth assay; assay type: functional
Plasmodium falciparum [13] = assay: In vitro antimalarial activity for Plasmodium falciparum at 0.50 uM/well dose at 24 hrs in Schizont maturation assay; assay type: functional
Plasmodium falciparum [14] = assay: In vitro antimalarial activity for Plasmodium falciparum at 20 uM/well dose at 24 hrs in Schizont maturation assay; assay type: functional
Plasmodium falciparum [15] = assay: In vitro inhibition of Plasmodium falciparum at 10 uM/well dose at 72 hrs in total parasite growth assay; assay type: functional
Mus musculus [16] = assay: In vivo anti-malarial activity against Plasmodium berghei in mice (Mus musculus) at a dose of 80 mg/kg; Active; assay type: functional, organism-based; design: dose 80 mg/kg
Plasmodium falciparum [17] = assay: In vitro antimalarial activity for Plasmodium falciparum at 1 uM/well dose at 24 hrs in Schizont maturation assay; assay type: functional
Plasmodium falciparum [18] = assay: In vitro antimalarial activity for Plasmodium falciparum at 500 uM/well dose at 24 hrs in Schizont maturation assay; assay type: functional
Plasmodium falciparum [19] = assay: In vitro antimalarial activity for Plasmodium falciparum at 0.10 uM/well dose at 24 hrs in Schizont maturation assay; assay type: functional
Plasmodium falciparum [20] = assay: In vitro inhibition of Plasmodium falciparum at 50 uM/well dose at 72 hrs in total parasite growth assay; assay type: functional
Plasmodium falciparum [21] = assay: In vitro inhibition of Plasmodium falciparum at 100 uM/well dose at 72 hrs in total parasite growth assay; assay type: functional
Mus musculus [22] = assay: Antimalarial activity against Plasmodium berghei evaluated in terms of mean survival time for mice (Mus musculus) at a dose of 80 mg/kg; assay type: functional
Plasmodium falciparum [23] = assay: In vitro antimalarial activity for Plasmodium falciparum at 10 uM/well dose at 24 hrs in Schizont maturation assay; assay type: functional
Plasmodium falciparum [24] = assay: In vitro inhibition of Plasmodium falciparum at 5 uM/well dose at 72 hrs in total parasite growth assay; assay type: functional
Mus musculus [25] = assay: Anti-malarial activity against Plasmodium berghei evaluated in terms of mean survival time for mice (Mus musculus) at a dose of 20 mg/kg; assay type: functional
Plasmodium falciparum [26] = assay: In vitro antimalarial activity for Plasmodium falciparum at 50 uM/well dose at 24 hrs in Schizont maturation assay; assay type: functional
Mus musculus [27] = assay: In vivo antimalarial activity against Plasmodium berghei in mice (Mus musculus); Inactive; assay type: functional, organism-based
Plasmodium falciparum [28] = assay: In vitro growth inhibition against Plasmodium falciparum at a dose of 20 uM/well through total parasite growth inhibition assay over 72 hr; assay type: functional
Plasmodium falciparum [29] = assay: In vitro inhibition of Plasmodium falciparum at 5 uM/well dose at 72 hrs in total parasite growth assay; Not determined; assay type: functional
Plasmodium falciparum [30] = assay: In vitro inhibition of Plasmodium falciparum at 25 uM/well dose at 72 hrs in total parasite growth assay; assay type: functional
Plasmodium falciparum [31] = assay: In vitro antimalarial activity for Plasmodium falciparum at 16 uM/well dose at 24 hrs in Schizont maturation assay; assay type: functional
Plasmodium falciparum [32] = assay: In vitro antimalarial activity for chloroquine-resistant Plasmodium falciparum at 32 uM/well dose at 24 hrs in Schizont maturation assay; assay type: functional
Plasmodium falciparum [33] = assay: In vitro antimalarial activity for Plasmodium falciparum at 32 uM/well dose at 24 hrs in Schizont maturation assay; assay type: functional
Plasmodium falciparum [34] = assay: In vitro inhibition of Plasmodium falciparum at 2 uM/well dose at 72 hrs in total parasite growth assay; assay type: functional
Plasmodium falciparum [35] = assay: In vitro inhibition of Plasmodium falciparum at 16 uM/well dose at 72 hrs in total parasite growth assay; assay type: functional
Plasmodium falciparum [36] = assay: In vitro antimalarial activity for chloroquine-resistant Plasmodium falciparum at 1 uM/well dose at 24 hrs in Schizont maturation assay; assay type: functional
Plasmodium falciparum [37] = assay: In vitro antimalarial activity for chloroquine-resistant Plasmodium falciparum at a dose of 4 uM/well through Schizonts maturation assay over 24 hr; assay type: functional
Plasmodium falciparum [38] = assay: In vitro antimalarial activity for chloroquine-resistant Plasmodium falciparum at 16 uM/well dose at 24 hrs in Schizont maturation assay; assay type: functional
Plasmodium falciparum [39] = assay: In vitro inhibition of Plasmodium falciparum at 32 uM/well dose at 72 hrs in total parasite growth assay; assay type: functional
Plasmodium falciparum [40] = assay: In vitro inhibition of Plasmodium falciparum at 8 uM/well dose at 72 hrs in total parasite growth assay; assay type: functional
Plasmodium falciparum [41] = assay: In vitro inhibition of Plasmodium falciparum at 64 uM/well dose at 72 hrs in total parasite growth assay; assay type: functional
Plasmodium falciparum [42] = assay: In vitro antimalarial activity for Plasmodium falciparum at 64 uM/well dose at 24 hrs in Schizont maturation assay; assay type: functional
Plasmodium falciparum [43] = assay: In vitro antimalarial activity for Plasmodium falciparum at 4 uM/well dose at 24 hrs in Schizont maturation assay; assay type: functional
Plasmodium falciparum [44] = assay: In vitro antimalarial activity for chloroquine-resistant Plasmodium falciparum at 8 uM/well dose at 24 hrs in Schizont maturation assay; assay type: functional
Plasmodium falciparum [45] = assay: In vitro antimalarial activity for chloroquine-resistant Plasmodium falciparum at 2 uM/well dose at 24 hrs in Schizont maturation assay; assay type: functional
Plasmodium falciparum [46] = assay: In vitro antimalarial activity for Plasmodium falciparum at 8 uM/well dose at 24 hrs in Schizont maturation assay; assay type: functional
Plasmodium falciparum [47] = assay: In vitro antimalarial activity for chloroquine-resistant Plasmodium falciparum at 64 uM/well dose at 24 hrs in Schizont maturation assay; assay type: functional
Plasmodium falciparum [48] = assay: In vitro antimalarial activity for Plasmodium falciparum at 2 uM/well dose at 24 hrs in Schizont maturation assay; assay type: functional
Plasmodium falciparum [49] = assay: In vitro inhibition of Plasmodium falciparum at 4 uM/well dose at 72 hrs in total parasite growth assay; assay type: functional

SMILES | PGI (Plasmodium falciparum [1]) | inhibition at 5 µM (Plasmodium falciparum [2]) | inhibition at 0.25 µM (Plasmodium falciparum [3]) | inhibition at 2.5 µM (Plasmodium falciparum [4]) | Mean survival time (Mus musculus [5]) | Mean survival time (Mus musculus [6]) | PGI (Plasmodium falciparum [7]) | inhibition at 100 µM (Plasmodium falciparum [10]) | PGI (Plasmodium falciparum [11]) | PGI (Plasmodium falciparum [12]) | inhibition at 0.5 µM (Plasmodium falciparum [13]) | inhibition at 20 µM (Plasmodium falciparum [14]) | PGI (Plasmodium falciparum [15]) | inhibition at 1 µM (Plasmodium falciparum [17]) | inhibition at 0.1 µM (Plasmodium falciparum [19]) | PGI (Plasmodium falciparum [20]) | PGI (Plasmodium falciparum [21]) | Mean survival time (Mus musculus [22]) | inhibition at 10 µM (Plasmodium falciparum [23]) | PGI (Plasmodium falciparum [24]) | also measured
C=C(C#N)C(O)c1cccnc1 (configuration not stated) | 82.5% | 100% | 12% | 100% | 8.8 days | 15.2 days | 20% | 100% | 55% | 77.5% | 50% | 100% | 97.5% | 93% | 0% | 100% | 100% | 13.4 days | 100% | 90% | Activity (Mus musculus [8]): Active; PGI (Plasmodium falciparum [9]): 100%; Activity (Mus musculus [16]): Active; inhibition at 500 µM (Plasmodium falciparum [18]): 100%; Mean survival time (Mus musculus [25]): 6.4 days; inhibition at 50 µM (Plasmodium falciparum [26]): 100%
COC(=O)C(CNC(C)C)C(O)c1ccc([N+](=O)[O-])cc1 (configuration not stated) | 15% | 29% | 0% | 25% | 8.2 days | 11.8 days | 0% | 100% | 0% | 10% | 0% | 80% | 42.5% | 14% | 0% | 100% | 100% | 9.8 days | 29% | 25% | Activity (Mus musculus [27]): inactive; PGI (Plasmodium falciparum [28]): 92.5%; Mean survival time (Mus musculus [25]): 7 days; inhibition at 50 µM (Plasmodium falciparum [26]): 100%
C=C(C#N)C(O)c1ccccc1 (configuration not stated) | 62.8% | 65.7% | 0% | 62.8% | – | – | – | 100% | 8.6% | 25.7% | 8.6% | 85% | 80% | 25.7% | 0% | – | 100% | – | 80% | – | PGI (Plasmodium falciparum [29]): 65.7%; PGI (Plasmodium falciparum [30]): 85%
CCN(CC)CCCC(C)Nc1ccnc2cc(Cl)ccc12.O=P(O)(O)O.O=P(O)(O)O (configuration not stated) [CHLOROQUINE PHOSPHATE] | – | – | – | – | – | – | – | – | – | 16.7% | – | – | – | 0% | – | – | – | – | – | – | inhibition at 16 µM (Plasmodium falciparum [31]): 100%; inhibition at 32 µM (Plasmodium falciparum [32]): 100%; inhibition at 32 µM (Plasmodium falciparum [33]): 100%; PGI (Plasmodium falciparum [34]): 58.3%; PGI (Plasmodium falciparum [35]): 100%; inhibition at 1 µM (Plasmodium falciparum [36]): 0%; inhibition at 4 µM (Plasmodium falciparum [37]): 39.4%; inhibition at 16 µM (Plasmodium falciparum [38]): 100%; PGI (Plasmodium falciparum [39]): 100%; PGI (Plasmodium falciparum [40]): 100%; PGI (Plasmodium falciparum [41]): 100%; inhibition at 64 µM (Plasmodium falciparum [42]): 100%; inhibition at 4 µM (Plasmodium falciparum [43]): 39.4%; inhibition at 8 µM (Plasmodium falciparum [44]): 86.8%; inhibition at 2 µM (Plasmodium falciparum [45]): 16%; inhibition at 8 µM (Plasmodium falciparum [46]): 86.8%; inhibition at 64 µM (Plasmodium falciparum [47]): 100%; inhibition at 2 µM (Plasmodium falciparum [48]): 16%; PGI (Plasmodium falciparum [49]): 91.7%
